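Step 1: Grow cells in 96-well plates. Step 2: Expose to compound for 48 hours at 5 concentrations. Step 3: Interpolate endpoints linearly; if unreached, use highest concentration. TGI: total growth inhibition.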

Some test systems named below: A498 renal; SNB-75 CNS; COLO 205 colon; HCT-15 colon; UACC-257 melanoma; ACHN renal; SK-MEL-5 melanoma; M14 melanoma; HOP-62 NSCLC; T-47D breast; NCI-H226 lung; RXF 393 renal; OVCAR-5 ovarian; CAKI-1 renal; SK-OV-3 ovarian; SN12C renal; HS 578T breast.
Holding throughout (experiment): NCI tumour cell line growth inhibition, 48 h

`C[C@H](C1CC2(C)OC2(C)C(=O)O1)[C@H]1CC[C@H]2[C@@H]3[C@@H]4O[C@@H]4[C@@]4(O)CC=CC(=O)[C@]4(C)[C@H]3CC[C@]12C` (some centres undefined): the TGI in the assay on A498 renal is more than 50 µM; with SNB-75 CNS, 19.8 µM; in the assay with COLO 205 colon it was more than 50 µM; with HCT-15 colon, more than 50 µM; in the assay on UACC-257 melanoma, more than 50 µM; with ACHN renal, more than 50 µM. Further, the TGI is more than 50 µM in the assay with SK-MEL-5 melanoma; more than 50 µM in the assay with M14 melanoma; more than 50 µM in the assay on HOP-62 NSCLC; more than 50 µM in the assay on T-47D breast; more than 50 µM in the assay on NCI-H226 lung; 23.9 µM in the assay with RXF 393 renal. The TGI in the assay with OVCAR-5 ovarian, in the assay on CAKI-1 renal, in the assay with SK-OV-3 ovarian and with SN12C renal was more than 50 µM throughout.
As to `Cc1ncc(COP(=O)(O)O)c(/C=C2\SC(=S)NC2=O)c1O`, the TGI with A498 renal, in the assay on SNB-75 CNS, in the assay on COLO 205 colon, in the assay with HCT-15 colon, with UACC-257 melanoma and in the assay with ACHN renal was more than 100 µM each time. In addition, the TGI with SK-MEL-5 melanoma, in the assay on M14 melanoma, with HOP-62 NSCLC, in the assay on T-47D breast, with NCI-H226 lung and with RXF 393 renal was more than 100 µM throughout. Also, the TGI in the assay with OVCAR-5 ovarian, in the assay with CAKI-1 renal, in the assay on SK-OV-3 ovarian and in the assay with SN12C renal was more than 100 µM throughout.
Turning to `Cc1nc(-c2cc3ccccc3oc2=O)cs1`, the TGI with COLO 205 colon, in the assay on HCT-15 colon, in the assay on UACC-257 melanoma, in the assay with ACHN renal, in the assay with SK-MEL-5 melanoma and in the assay on M14 melanoma was more than 100 µM throughout. Further, the TGI in the assay on HOP-62 NSCLC was 42 µM; in the assay with T-47D breast, more than 100 µM; in the assay on NCI-H226 lung it was more than 100 µM; in the assay on RXF 393 renal, more than 100 µM; in the assay on HS 578T breast it was 65.8 µM; with OVCAR-5 ovarian, more than 100 µM. Further, the TGI in the assay with CAKI-1 renal, in the assay on SK-OV-3 ovarian and in the assay with SN12C renal was more than 100 µM in each case.
`O=[N+]([O-])/C(C(Cl)=C(Cl)Cl)=C(/Nc1cccc2cccnc12)n1nnc2ccccc21`: the TGI is 67.8 µM in the assay with SNB-75 CNS; 31.1 µM in the assay with COLO 205 colon; 28.1 µM in the assay on HCT-15 colon; more than 100 µM in the assay on UACC-257 melanoma; 49.8 µM in the assay on ACHN renal; 25.5 µM in the assay on M14 melanoma. Besides, the TGI in the assay with HOP-62 NSCLC was 37.5 µM; with T-47D breast it was 41 µM; with NCI-H226 lung it was 67.4 µM; in the assay with HS 578T breast, 33.3 µM; with OVCAR-5 ovarian, 58.3 µM; in the assay on CAKI-1 renal, 26.3 µM. For the same compound, the TGI with SK-OV-3 ovarian is 32.9 µM; in the assay with SN12C renal, 39.5 µM.
Turning to `NC(=S)NC/C=C/Cl`, the TGI with SNB-75 CNS, with COLO 205 colon, in the assay on HCT-15 colon, in the assay on UACC-257 melanoma, in the assay with ACHN renal and with SK-MEL-5 melanoma was more than 100 µM throughout. For the same compound, the TGI in the assay with M14 melanoma, in the assay on HOP-62 NSCLC, in the assay with T-47D breast, with NCI-H226 lung, with RXF 393 renal and with HS 578T breast was more than 100 µM each time. In addition, the TGI in the assay with OVCAR-5 ovarian, in the assay with CAKI-1 renal and with SK-OV-3 ovarian was more than 100 µM in each case.
With `CC1=CCC[C@H]2[C@](C)(CC3=CC(=O)C(SCC(C)C)=CC3=O)[C@@H](C)CC[C@]12C`, the TGI in the assay with A498 renal turned out to be 33.2 µM; in the assay on SNB-75 CNS, 23.8 µM; in the assay with COLO 205 colon, 36.6 µM; in the assay on HCT-15 colon, 31.8 µM; in the assay on UACC-257 melanoma, 37.8 µM; in the assay on ACHN renal, 29.7 µM. The TGI in the assay on SK-MEL-5 melanoma amounted to 31.5 µM; with M14 melanoma it was 34.7 µM; in the assay on HOP-62 NSCLC, 31 µM; in the assay on T-47D breast, 12.9 µM; with NCI-H226 lung, 28.9 µM; with RXF 393 renal, 26.1 µM. For the same compound, the TGI is 40.9 µM with OVCAR-5 ovarian, 16.7 µM in the assay on CAKI-1 renal, 35.1 µM in the assay with SK-OV-3 ovarian and more than 57.5 µM with SN12C renal.
Regarding `CN(C)CC1CCC(CN(C)C)C(=O)C1=O` (centres undefined), the TGI was 31.8 µM with A498 renal; 30.6 µM with SNB-75 CNS; 3.5 µM in the assay on COLO 205 colon; 7.78 µM in the assay on HCT-15 colon; 6.44 µM in the assay on UACC-257 melanoma; 11.9 µM in the assay with ACHN renal. The TGI in the assay on SK-MEL-5 melanoma was found to be 30 µM; with M14 melanoma, 12.5 µM; in the assay with HOP-62 NSCLC, 35.3 µM; in the assay with T-47D breast it was 5.36 µM; in the assay with NCI-H226 lung it was 10.8 µM; in the assay on RXF 393 renal it was 3.47 µM. For the same compound, the TGI was 30.9 µM in the assay on OVCAR-5 ovarian, 3.82 µM in the assay with CAKI-1 renal, 38.7 µM in the assay on SK-OV-3 ovarian and 32.7 µM with SN12C renal.
As for `NC(=O)CN1C=CCC(C(N)=O)=C1`, the TGI with A498 renal, in the assay on SNB-75 CNS, in the assay with COLO 205 colon, in the assay on HCT-15 colon, with UACC-257 melanoma and with ACHN renal was more than 100 µM throughout. In addition, the TGI in the assay with SK-MEL-5 melanoma, in the assay on M14 melanoma, with HOP-62 NSCLC, with T-47D breast, with NCI-H226 lung and in the assay with RXF 393 renal was more than 100 µM in each case. For the same compound, the TGI with OVCAR-5 ovarian, in the assay on CAKI-1 renal, in the assay on SK-OV-3 ovarian and with SN12C renal was more than 100 µM in each case.
Turning to `Oc1ccc(Oc2cc3c(cc2Oc2ccc(O)cc2)-c2nc-3nc3[nH]c(nc4nc(nc5[nH]c(n2)c2cc(Oc6ccc(O)cc6)c(Oc6ccc(O)cc6)cc52)-c2cc(Oc5ccc(O)cc5)c(Oc5ccc(O)cc5)cc2-4)c2cc(Oc4ccc(O)cc4)c(Oc4ccc(O)cc4)cc32)cc1`, the TGI in the assay on SNB-75 CNS, with COLO 205 colon, in the assay with HCT-15 colon, in the assay with UACC-257 melanoma, in the assay on ACHN renal and with SK-MEL-5 melanoma was more than 100 µM throughout. Also, the TGI with M14 melanoma is 30.3 µM; with HOP-62 NSCLC it was more than 100 µM; in the assay with T-47D breast, more than 100 µM; with NCI-H226 lung it was more than 100 µM; in the assay on HS 578T breast it was more than 100 µM; in the assay on OVCAR-5 ovarian, more than 100 µM. Further, the TGI in the assay on CAKI-1 renal, in the assay with SK-OV-3 ovarian and in the assay with SN12C renal was more than 100 µM throughout.
Turning to `O=C1NC(N2CCOCC2)=N/C1=C\c1ccc(O)cc1`, the TGI with SNB-75 CNS, with COLO 205 colon, with HCT-15 colon, with UACC-257 melanoma, with ACHN renal and with M14 melanoma was more than 100 µM throughout. The TGI in the assay with HOP-62 NSCLC, with T-47D breast, in the assay with NCI-H226 lung, with RXF 393 renal, in the assay with HS 578T breast and in the assay with OVCAR-5 ovarian was more than 100 µM throughout. The TGI in the assay with CAKI-1 renal, in the assay with SK-OV-3 ovarian and in the assay on SN12C renal was more than 100 µM throughout.
Take `CCCCCCCCC#CCCCCCCCCCC[C@@H]1C(=O)O[C@H](C)[C@@H]1O` (tested in a mixture with another compound): the TGI was more than 100 µM in the assay with A498 renal; 52.4 µM with SNB-75 CNS; more than 100 µM in the assay with COLO 205 colon; more than 100 µM in the assay with HCT-15 colon; more than 100 µM with UACC-257 melanoma; 45.2 µM with ACHN renal. Also, the TGI in the assay with SK-MEL-5 melanoma was 26.8 µM; with M14 melanoma, 41 µM; with HOP-62 NSCLC it was 39 µM; with T-47D breast, more than 100 µM; in the assay with NCI-H226 lung, more than 100 µM; in the assay on RXF 393 renal, 28.4 µM. The TGI with OVCAR-5 ovarian was more than 100 µM; in the assay with CAKI-1 renal it was 29.1 µM; in the assay on SK-OV-3 ovarian, more than 100 µM; with SN12C renal, 32.3 µM.
For `CC(=O)OCC1OC(n2c(C)c(C)c(C)c(C#N)c2=S)C(OC(C)=O)C(OC(C)=O)C1OC(C)=O` (centres undefined), the TGI in the assay with A498 renal, in the assay on SNB-75 CNS, in the assay with COLO 205 colon, in the assay with HCT-15 colon, in the assay with UACC-257 melanoma and with ACHN renal was more than 100 µM in each case. The TGI in the assay with SK-MEL-5 melanoma is more than 100 µM; in the assay on M14 melanoma, more than 100 µM; with HOP-62 NSCLC, 49.8 µM; in the assay on T-47D breast, more than 100 µM; with NCI-H226 lung, more than 100 µM; with RXF 393 renal, 57.6 µM. Besides, the TGI in the assay on OVCAR-5 ovarian was more than 100 µM; in the assay with CAKI-1 renal, more than 100 µM; with SK-OV-3 ovarian, 80.9 µM; with SN12C renal, more than 100 µM.
On to `Clc1ccc(C2=CCN3CC=C(c4ccc(Cl)cc4)C23)cc1`, for which the TGI with COLO 205 colon is 6.28 µM; in the assay with HCT-15 colon it was 23.5 µM; in the assay on UACC-257 melanoma, 24.2 µM; with ACHN renal, 27 µM; in the assay on SK-MEL-5 melanoma it was 13.5 µM; with M14 melanoma it was 22.6 µM. The TGI in the assay on HOP-62 NSCLC was 26.7 µM; in the assay on T-47D breast it was 29.2 µM; with NCI-H226 lung, 43.2 µM; in the assay with HS 578T breast, 30.3 µM; in the assay with OVCAR-5 ovarian, 17 µM; in the assay with CAKI-1 renal, 27.4 µM. This compound also gave a TGI in the assay with SN12C renal of 21 µM.

These data come from PubChem BioAssay (NCI).
